This note sets out measurements from article PMC11696576, “Next generation thiazolyl ketone inhibitors of cytosolic phospholipase A2 α for targeted cancer therapy” (Nature Communications, 2025).

Values joined by “and” are separate entries in the source; they are usually repeats but may differ in a detail not shown here. Equal entries are not always repeated. Where two headings read alike, the source gives them in different places. Marks after values point to notes of the source that are not given here.

The nature of series [1]: stability in human plasma (LC-MS/MS). The series is classed as in vitro ADME. To be noted: for Stability in human plasma 4 h: % of the compound remaining after 4 h. The method, then: The stability of the analogs in human plasma was studied over approximately 24 h by LC-MS/MS and the results at 4 h and the final timepoint (20–25 h) are included in Table 1.
The metabolic stability of the compounds was determined through in vitro stability assays in human plasma. Solutions of compounds in DMSO (20 mM) were diluted to 5 μg/mL in 50% methanol for infusion into the MS/MS system and spiking of calibration standards and control samples. For the MS detection, positive ionization in ESI mode was used. Good sensitivity, retention and peak shaped were achieved using a gradient with 5 mM ammonium carbamate in water and ammonium carbamate in 90% acetonitrile on a reversed phase column (ACE3AQ). Calibration standards were spiked in a calibration range of 0.5–100 ng/ml. Control samples were spiked at, low, medium, and high concentration levels. The spiked plasma samples were prepared by protein precipitation using acetonitrile containing appropriate internal standard (IS). […] Samples were prepared for analysis by taking 50 μL of plasma sample and adding 100 μL of IS working solution in acetonitrile followed by vortexing at 2500 rpm (Multi-tube vortexer DVX-2500, Henry Troemner LLC, USA) for 2 min. The samples were centrifuged at 5300 rpm (Heraeus Megafuge 1.0 Heraeus, Germany) for 3 min and the supernatant transferred to the autosampler. Recovery was determined by comparing the prepared matrix samples (protein precipitation) with a direct sample (analytes spikes in 67% acetonitrile = injection solution) such that the recovery of the sample preparation and the matrix effects were determined together. Two or three samples were each measured in technical triplicates to give the final % recovery.

Series [2] deals with T1, human calcium-independent GVIA iPLA2 (Homo sapiens, UniProt O60733).
T1 sequence (O60733 1-806): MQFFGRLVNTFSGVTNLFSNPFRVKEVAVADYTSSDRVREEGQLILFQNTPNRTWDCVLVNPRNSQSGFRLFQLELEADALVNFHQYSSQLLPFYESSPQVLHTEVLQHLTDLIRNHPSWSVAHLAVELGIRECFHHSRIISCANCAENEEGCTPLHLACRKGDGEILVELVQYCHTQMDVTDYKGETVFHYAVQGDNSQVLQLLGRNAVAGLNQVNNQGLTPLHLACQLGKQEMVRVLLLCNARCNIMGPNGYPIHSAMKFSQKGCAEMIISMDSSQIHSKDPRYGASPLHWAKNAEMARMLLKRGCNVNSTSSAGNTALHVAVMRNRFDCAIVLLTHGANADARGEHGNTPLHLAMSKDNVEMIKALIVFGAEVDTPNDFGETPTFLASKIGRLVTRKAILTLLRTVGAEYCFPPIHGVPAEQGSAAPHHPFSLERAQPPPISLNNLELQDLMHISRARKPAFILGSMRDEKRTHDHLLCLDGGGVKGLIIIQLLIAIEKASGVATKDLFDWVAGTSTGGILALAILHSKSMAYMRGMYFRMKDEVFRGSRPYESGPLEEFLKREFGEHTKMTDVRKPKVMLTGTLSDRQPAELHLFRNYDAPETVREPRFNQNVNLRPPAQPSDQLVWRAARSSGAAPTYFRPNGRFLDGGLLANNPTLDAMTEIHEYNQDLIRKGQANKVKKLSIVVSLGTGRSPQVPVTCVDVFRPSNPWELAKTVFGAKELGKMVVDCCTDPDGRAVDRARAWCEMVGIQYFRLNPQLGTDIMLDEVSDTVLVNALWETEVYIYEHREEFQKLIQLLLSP
Kind of series: radioactivity-based mixed micelle assay, GVIA iPLA2. Format: biochemical. Here is the method: All synthesized thiazolyl ketones were tested for their in vitro inhibitory activity on recombinant human cPLA2α and selectivity over human calcium-independent GVIA iPLA2 and secreted GV sPLA2 using our previously described group-specific radioactivity-based mixed micelle assays. The inhibition results are presented either as per cent inhibition or as XI(50) values in Table 1. […] The XI(50) is defined as the mole fraction of the inhibitor in the total substrate interface required to inhibit the enzyme activity by 50%. For comparison purposes, previously published data for the inhibitor GK470[19] are included. […] Inhibitors were initially screened at 0.091 mol fraction (5 μL of 5 mM inhibitor in DMSO) in substrate (495 μL) in technical triplicates. […] The XI(50) value and stdev values reported are for the entire curve. This analysis was performed in GraphPad Prism v6.

The test system of the next series is SW982 synoviocytes. The experiment in a line: cellular arachidonic acid (AA) release assay, IL-1β stimulated. Format: cell-based, human. To be noted: for EC50 / IC50: SW982; for IC50: concentration in µM, read-out: logEC50 best-fit value, AA release (converted). From the text: To test the inhibitory activity of the compounds in cells, we measured their effect on the release of AA from synoviocytes stimulated with IL-1β (Table 2). […] Combined with favorable selectivity and stability it was thus chosen for further evaluation. We looked specifically at how it modulated eicosanoid levels in response to stimulation both in whole blood and in isolated peripheral blood mononuclear cells (PBMCs) and checked for off-target effects on AA metabolism in whole blood by also measuring the effect of GK420 on eicosanoid release in the presence of exogenous free AA.
The human synovial sarcoma cell line SW982 (ATCC, London, UK) was used to measure AA release. The cells were maintained in Dulbecco’s Modified Eagle Medium (DMEM) supplemented with 10% FBS, 0.1 mg/mL gentamicin, and 0.3 mg/mL L-glutamine at 37 °C with 10% CO2, and experiments were performed at 3 days post-confluence. To measure AA release, the cells were labeled overnight with ^3H-AA (0.4 μCi/mL) in serum-free DMEM and then washed twice with PBS containing fBSA (2 mg/mL) to remove unincorporated radioactivity. The inhibitors, or DMSO vehicle control, were subsequently added to the cells for 1 hour prior to stimulation with 10 ng/mL IL-1β for 4 h. Supernatants were collected and centrifuged at 300 × g for 5 min to clear them of detached cells and adherent cells were dissolved in 1 N NaOH. The ^3H-AA was assessed by liquid scintillation counting (LS 6500 Multi-Purpose Scintillation Counter, Beckman Coulter, Inc., USA) and the results are given as the inhibition of released ^3H-AA in the supernatants relative to total ^3H-AA incorporated into the cells, as described. EC50 values were calculated by fitting the % inhibition data to a three-parameter dose-response curve in GraphPad prism v10.4.0. Experiments were performed in technical triplicates and repeated at least three times.

Where [3] appears, read: individual sample, human plasma.
[4] abbreviates: 0.091 mole fraction, read-out: GVIA iPLA2 % Inhib.
Setting [5] is: average of triplicates, read-out: iPLA2 % inhibition at 0.091 mole fraction, average.
Where [6] appears, read: individual technical replicate, read-out: iPLA2 % inhibition at 0.091 mole fraction.
[7] abbreviates: 0.2 µM, individual biological replicate.
[8] abbreviates: 1 µM, individual biological replicate.
Where [9] appears, read: 5 µM, individual biological replicate.
[10] abbreviates: Homo sapiens, SW982, 4 h, 1 µM inhibitor, IL-1β 4 h, mean ± stdev, read-out: AA release % Inhib.
Setting [11] is: Homo sapiens, IL-1β 4 h, 0.2, 1 or 5 µM inhibitor, read-out: AA release EC50 µM (95% CI).
Where [12] appears, read: Homo sapiens, [Agonist] vs. Response (three parameters).
The mark [13] stands for this setting: Homo sapiens, [Agonist] vs. Response (three parameters), read-out: EC50 best-fit value, AA release.

`COC(=O)c1csc(C(=O)COc2ccc(Oc3ccc(F)cc3)cc2)n1` [GK440]: the “Stability in human plasma 4 h” value in series [1] is on record as 21.3%. In addition, in series [1] (% of the compound remaining after 24 h 39 min (*)), the “Stability in human plasma 20+ h” value is recorded as 0.9* %. In series [1] (setting [3]), the “plasma stability 24h39min (%)” value was 0.5% and 1.3%. Moreover, the “plasma stability 4h (%)” value in series [1] (setting [3]) is 20.1% and 22.4%. Moreover, the inhibition at 0.091 mole fraction in series [2] (setting [4]), in series [2] (setting [5]) and in series [2] (setting [6]) was 0% throughout. For the same compound, the “% inhibition of stimulated AA release” value in the series with SW982 synoviocytes (setting [7]) is 52.34% and 48.93% and 32.32% and 54.12%; in the series on SW982 synoviocytes (setting [8]), 77.97% and 89.75% and 95.95%; in the series on SW982 synoviocytes (setting [9]), 121.05% and 107.56% and 129.55% and 117.95%. In addition, the inhibition at 1 µM in the series on SW982 synoviocytes (Homo sapiens, SW982, 1 µM, individual biological replicate, read-out: % inhibition of stimulated AA release) amounted to 90%; in the series on SW982 synoviocytes (setting [10]) it was 88 ± 8%. Further, the concentration giving a half-maximal response (EC50) – broadly, the concentration that produces a half-maximal response – amounted to 0.18 µM with SW982 synoviocytes (setting [11]) and 0.184 µM with SW982 synoviocytes (setting [13]). In the series with SW982 synoviocytes (setting [12]), the IC50 is 0.184 µM.
For the compound `CCCCCCCOc1ccc(OCC(=O)c2nc(C(=O)OC)cs2)cc1` [GK420], in series [1], the “Stability in human plasma 4 h” value is given as 63.3%. In series [1] (% of the compound remaining after 20 h), the “Stability in human plasma 20+ h” value was 18.05%. Moreover, in series [1] (setting [3]), the “plasma stability 4h (%)” value was 64.7% and 61.9%. The “plasma stability 20h (%)” value in series [1] (setting [3]) is 19.1% and 17%. Besides, the inhibition at 0.091 mole fraction in series [2] (setting [4]), in series [2] (setting [5]) and in series [2] (setting [6]) was 0% in each case. The “% inhibition of stimulated AA release” value with SW982 synoviocytes (setting [7]) is 55.97% and 44.95% and 68.85% and 89.01%; in the series with SW982 synoviocytes (setting [8]), 102.49% and 78.04% and 96.65% and 110.97%; with SW982 synoviocytes (setting [9]) it was 103.28% and 116.15% and 112.68%. Further, the inhibition at 5 µM with SW982 synoviocytes (Homo sapiens, SW982, 5 µM, individual biological replicate) was determined as 119%. The inhibition at 1 µM in the series with SW982 synoviocytes (setting [10]) amounted to 97 ± 14%. In addition, the concentration giving a half-maximal response (EC50) in the series on SW982 synoviocytes (setting [11]) is 0.09 µM; in the series on SW982 synoviocytes (setting [13]), 0.0943 µM. The IC50 with SW982 synoviocytes (setting [12]) is 0.0942 µM.
